According to patent publication US8920851B2, “Treatment of neurodegenerative diseases” (Velacor Therapeutics Pty Ltd, priority 2006, dated 2014):

Columns and labels:
human TAU441 = details: TMHT mice
Procedure: This was done every Monday, Wednesday and Friday, and the water was weighed on exchange to measure consumption.
After blood sampling transgenic mice were intracardially perfused with 0.9% sodium chloride. Brains were rapidly removed, and the right half was immersion fixed for 24 hours in freshly prepared 4% Paraformaldehyde and embedded in paraffin for histological investigations. The left hemisphere was frozen on dry ice and stored at −80° C. for possible later biochemical analysis.
In initially nine (9) brain hemispheres (≧3 per Tg animal group) histological evaluations were performed to qualitative and quantitative evaluate TAU pathology.
Fifteen (15) coronal consecutive sections (Leica SM 2000R) were cut (5 μm thick) at each of 5 different brain layers between Bregma −1.82 and −1.34 mm, which were chosen according to the morphology atlas “The Mouse Brain” from Paxinos and Franklin (2 ^d edition), for Gallyas staining and for determination TAU pathology with specific antibodies (AT180 and HT7). Tissues of all transgenic animals investigated were handled in exactly the same way to avoid bias due to variation of this procedure. Remaining brain hemispheres or tissue not used are saved and stored until the sponsor has decided to how to proceed or until end of the study.
TAU depositions were determined using the monoclonal TAU-antibodies AT180 and HT7 (Pierce Endogen®).
Five (5) μm thick coronal paraffin sections from each of the five different layers were stained with the above described monoclonal mouse anti-human TAU-antibodies (AT180—1:100; HT7—1:1000) and visualized using a secondary anti-mouse Cy3 (1:500, Jackson Laboratories®). The detailed staining protocols are set out below:
AT180 incubation protocol for the determination of human PHF-TAU depositions • 1.) Deparaffinize and hydrate tissue sections through Tissue Clear (Sakura®) and graded alcohol (Merck®) series. • 2.) Wash for 2 minutes in Aqua bidest (Fresenius-Kabi®) • 3.) Place tissue sections for antigen unmasking in 10% citrate buffer (Labvision®) for 15 minutes at 95° C. in a steamer and to cool down for 15 minutes at room temperature. • 4.) Wash sections for 2×5 minutes in PBS. • 5.) Block endogenous peroxidase with 1% hydrogen peroxide (Linaris®) in methanol (Merck®) for 10 minutes at room temperature. • 6.) Wash sections for 2×5 minutes in PBS. • 7.) Block unspecific bindings with MOM-Blocking Reagent (Vector®) for 60 minutes at room temperature in a damp chamber. • 8.) Wash sections for 2×5 minutes in PBS. • 9.) Block unspecific bindings with MOM-Diluent (Vector®) for 5 minutes at room temperature. • 10.) Incubate with AT180 (Pierce Endogen®; 1:100 in MOM-Diluent) for 60 minutes at room temperature in a damp chamber. • 11.) Wash sections for 3×5 minutes in PBS. • 12.) Block unspecific bindings with 10% Non-Immune Goat-Normal Serum (Dako®) for 10 minutes at room temperature in a damp chamber. • 13.) Wash sections for 2×5 minutes in PBS. • 14.) Incubate with Cy 3 Goat Anti-Mouse (Jackson®; 1:500 in MOM-Diluent) for 60 minutes at room temperature in a damp chamber. • 15.) Wash sections for 5 minutes in PBS. • 16.) Wash sections for 5 minutes in Aqua bidest. • 17.) Cover sections with Moviol and coverslips.

[1] = target: T1, human PP2A A-C heterodimer (Homo sapiens, UniProt P67775); type: biochemical
T1 construct: purified PP2A A-C dimer purified from human red blood cells; purchased Upstate 14-111 (lot #28002); host or cells: human red blood cells (native purification)
T1 sequence (P67775 whole entry): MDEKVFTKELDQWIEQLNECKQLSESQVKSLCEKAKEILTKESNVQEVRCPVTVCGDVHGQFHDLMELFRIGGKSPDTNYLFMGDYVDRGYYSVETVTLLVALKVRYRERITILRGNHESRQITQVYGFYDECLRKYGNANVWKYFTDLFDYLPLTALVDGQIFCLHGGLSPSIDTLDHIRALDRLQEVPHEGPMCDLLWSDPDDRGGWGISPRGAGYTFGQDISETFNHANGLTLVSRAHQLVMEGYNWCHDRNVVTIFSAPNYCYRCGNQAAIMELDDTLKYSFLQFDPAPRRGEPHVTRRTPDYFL
T1 sequence (P30153 2-589 partner limits assumed): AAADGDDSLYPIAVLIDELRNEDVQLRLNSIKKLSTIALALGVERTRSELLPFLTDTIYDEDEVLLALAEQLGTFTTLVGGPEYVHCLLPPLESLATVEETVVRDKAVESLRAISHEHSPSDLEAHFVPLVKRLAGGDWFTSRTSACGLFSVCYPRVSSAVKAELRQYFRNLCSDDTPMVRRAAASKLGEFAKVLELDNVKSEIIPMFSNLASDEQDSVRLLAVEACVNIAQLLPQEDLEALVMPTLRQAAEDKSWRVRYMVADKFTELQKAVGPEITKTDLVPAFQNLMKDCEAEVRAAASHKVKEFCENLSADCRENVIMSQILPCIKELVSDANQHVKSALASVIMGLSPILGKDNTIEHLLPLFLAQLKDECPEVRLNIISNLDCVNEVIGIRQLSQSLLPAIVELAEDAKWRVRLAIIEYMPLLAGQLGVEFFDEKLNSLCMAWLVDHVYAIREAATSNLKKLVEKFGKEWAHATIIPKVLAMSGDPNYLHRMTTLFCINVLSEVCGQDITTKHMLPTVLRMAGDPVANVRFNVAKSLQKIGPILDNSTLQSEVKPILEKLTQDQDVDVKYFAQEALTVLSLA
Procedure: In initial assays a chemical substrate of phosphatase enzymatic action, para-nitrophennylphosphate (pNPP) was used, which following hydrolysis of the phosphate moiety generates para-nitrophenol, an intensely yellow chromogen which is soluble under alkaline conditions. […] Absorbance of each sample was measured in duplicate at 405 nm with 590 nm as a reference. PP2A activity was calculated using the following equation: activity=(sample vol in liters)×A405/1.78×104M^−1 cm^−1 (extinction coefficient)×0.25 cm×15 minutes×0.05 U enzyme Data is presented as mean relative phosphatase activity ±SEM from at least three independent experiments.
Para-nitrophennylphosphate (PNPP) is a chemical substrate of phosphatase enzymes, which following hydrolysis of the phosphate moiety generates para-nitrophenol, an intensely yellow chromogen, soluble under alkaline conditions. In assays measuring relative phosphatase activity, 0.05 U of purified PP2A was mixed with 5 μl of 40 mM NiCl2 and 5 μl of BSA solution (5 mg/ml) in a microcentrifuge tube. Various treatments were added as indicated, and the volume adjusted to 80 μl with pNPP assay buffer. Samples were pre-incubated at 37° C. for 15 min. pNPP substrate was freshly prepared before each assay by dissolving 1.5 mg/ml pNPP in 50 mM Tris-HCl, pH 7.0. To start the phosphatase reaction, 120 μl of pNPP substrate was added, and samples incubated for a further 15 min at 37° C. Absorbance of each sample was measured in duplicate at 405 nm with 590 nm as a reference. PP2A activity was calculated using the following equation: activity=(Sample volume in liters)×A405/1.78×10^4M^−1cm^−1 (Extinction coefficient)×0.25 cm×15 min×0.05 U enzyme.

p70S6K = type: cell-based, human; details: PC3 cells; LY294002 50 μM 1 hour, sodium selenate 500 μM 1 hour, okadaic acid 500 nM
Procedure: 5×10^5 PC3 prostate carcinoma cells were plated per well of a 6-well plate, allowed to attach for 8 hours, then serum starved overnight. […] Equal amounts of whole cell lysates (75 μg) were resolved by SDS-PAGE, and the level of p70S6K phosphorylation determined by immunoblot analysis with an antibody that specifically recognizes the p70S6K protein when phosphorylated on Thr389. Comparison is made with the protein loading control β tubulin.

[2] = system: PC3 prostate carcinoma cells; assay: Intracellular redox state assay (DCFDA, flow cytometry); details: 1 h, sodium selenate 500 μM, NAC 1 mM
Procedure: 1×10^6 PC3 prostate carcinoma cells were plated in 60 mm dishes, allowed to attach for 8 h, and serum starved overnight. Cells were incubated with DCFDA 5 μM for 15 min prior to treatment.
The proportion of fluorescent cells was then determined by flow cytometry.
Intracellular redox state was determined using 2′,7′-dichlorodihydrofluorescein diacetate (DCFDA). […] Cells were equilibrated with 5 μM of DCFDA for 15 min prior to various treatments. Adherent cells were then harvested, washed twice with PBS and the proportion of fluorescent cells determined immediately by flow cytometry.

O=[Se](=O)(O)O [sodium selenate]
percentage of relative TAU area in the Amygdala (AT180), versus untreated baseline (human TAU441): not versus untreated baseline group | percentage of relative HT7-TAU area in the hippocampus (human TAU441; 1.2 mg, versus vehicle (ANOVA p<0.05, T-Test p=0.04) and untreated baseline (ANOVA p<0.05)): significantly reduced | percentage of relative AT180-TAU area in the hippocampus (human TAU441; 1.2 mg, versus vehicle (T-Test p=0.04)): reduced | percentage of relative TAU area in the Amygdala (AT180), versus vehicle (human TAU441; ANOVA p<0.05, T-Test p=0.0045): significantly reduced percentage of relative HT7-TAU area | TAU load and TAU positive cells in the amygdala and neuronal layer of the hippocampal CA1 region (human TAU441; AT180 and HT7 immunoreactivity): visibly reduced TAU load as well as TAU positive cells | percentage of relative HT7-TAU area in the Amygdala (human TAU441; versus untreated baseline (ANOVA p<0.01) and vehicle (ANOVA p<0.05, T-test p=0.0018)): significantly reduced percentage of relative HT7-TAU area | PP2A phosphatase activity, pNPP as substrate ([1]; 5 mM of each selenium compound): clear boost in phosphatase activity | PP2A phosphatase activity (pNPP) ([1]; 0.05 U PP2A dimer, 30 min at 37° C., sodium selenate 5 mM, okadaic acid 500 nM): nearly tripled | p70S6K phosphorylation on Thr389 (p70S6K): unaffected | basal proportion of fluorescent cells (ROS) [2]: had no effect on the basal proportion of fluorescent cells
